Results reported in patent publication US20240116897A1, “BENZOTHIAZOLE AND BENZIMIDAZOLE DERIVATIVES, PHARMACEUTICALLY ACCEPTABLE SALT THEREOF, PREPARATION METHOD THEREFOR, AND PHARMACEUTICAL COMPOSITION COMPRISING SAME AS ACTIVE INGREDIENT” (KOREA RESEARCH INSTITUTE OF CHEMICAL TECHNOLOGY, priority 2021, published 2024).

molecular target: T1, SIRT7 protein (Homo sapiens, UniProt Q9NRC8); test: SIRT Glo assay, inhibitory activity against Sirt7; format: biochemical; conditions: 10 μM compound
T1 construct: purchased SignalChem S41-30H
T1 sequence (Q9NRC8 1-400): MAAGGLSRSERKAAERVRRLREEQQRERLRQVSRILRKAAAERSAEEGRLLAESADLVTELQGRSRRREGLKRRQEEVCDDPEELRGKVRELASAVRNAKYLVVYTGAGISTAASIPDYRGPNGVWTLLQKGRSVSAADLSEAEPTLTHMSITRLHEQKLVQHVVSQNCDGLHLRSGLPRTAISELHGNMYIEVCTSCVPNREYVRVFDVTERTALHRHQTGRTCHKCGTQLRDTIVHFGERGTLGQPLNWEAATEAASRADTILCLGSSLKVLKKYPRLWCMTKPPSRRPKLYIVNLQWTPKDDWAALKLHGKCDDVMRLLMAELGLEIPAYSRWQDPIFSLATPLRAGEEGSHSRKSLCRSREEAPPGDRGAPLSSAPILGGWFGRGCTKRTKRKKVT
Experimental: Promega's Cat. No. 6450 SIRT Glo assay kit was used, and as the target SIRT7 protein, No. S41-30H protein of SignalChem's Cat. was used. Prepare the compound by diluting it in SIRT Glo buffer in advance to a concentration twice as thick as the final concentration. For the positive control group of white 384 well plate (Greiner Bioone, white, small volume, Cat. No. 874075), and for compound group, dilute sirt7 protein in SIRT Glo buffer and dispense by 5 μL to contain 20 ng per well. In the background control group, 10 μL of SIRT Glo buffer is dispensed.
After adding 5 μL of SIRT Glo buffer to the positive control group, and 5 μL of the diluted compound to the compound group, react for 30 minutes. After making the substrate provided in the SIRT Glo assay, adding 10 μL each, and reacting for 1 hour, the luciferase activity is measured with a microplate reader (Molecular Device, spectramax i3).
Subtract the luciferase level of the background control group in all wells. The % inhibition of the compound was used to obtain the compound's rate of inhibitory activity against sirt7 in the following:
% inhibition=100−(compound group/positive control group)×100.

Row | Compound | inhibition at 10 µM
1 | CCc1ccc(NC(=O)N2CCN(Cc3ccc(C(=O)Nc4nc5ccccc5s4)cc3)CC2)cc1 [Compound 1-52, 4-(4-(benzo[d]thiazol-2-ylcarbamoyl)benzyl)-N-(4-ethylphenyl)piperazine-1-carboxamide] | 85%
2 | CC(C)(C)OC(=O)N1CCC(=Cc2ccc(C(=O)Nc3nc4ccccc4s3)cc2)CC1 [Compound 1-63, tert-butyl 4-(4-(benzo[d]thiazol-2-ylcarbamoyl)benzylidene)piperidine-1-carboxylate] | 10%
3 | CC(C)NC(=O)N1CCC(=Cc2ccc(C(=O)Nc3nc4ccccc4s3)c(F)c2)CC1 [Compound 1-94, 4-(4-(benzo[d]thiazol-2-ylcarbamoyl)-3-fluorobenzylidene)-N-isopropylpiperidine-1-carboxamide] | 98%
4 | CC(C)(C)OC(=O)N1CCC(=Cc2ccc(C(=O)Nc3nc4ccccc4s3)c(Cl)c2)CC1 [Compound 1-103, tert-butyl 4-(4-(benzo[d]thiazol-2-ylcarbamoyl)-3-chlorobenzylidene)piperidine-1-carboxylate] | 44%
5 | CCN1CCN(Cc2ccc(C(=O)Nc3nc4ccccc4s3)cc2)CC1 [Compound 1-61, N-(benzo[d]thiazol-2-yl)-4-((4-ethylpiperazin-1-yl)methyl)benzamide] | 3%
6 | CCc1cnc(Oc2cccc(C(=O)Nc3nc4ccccc4s3)c2)nc1 [Compound 1-20, N-(benzo[d]thiazol-2-yl)-3-((5-ethylpyrimidin-2-yl)oxy)benzamide] | 63%
7 | c1ccc(CN2CCC3(CC2)CN(c2nc4ccccc4s2)C3)cc1 [Compound 1-30, 2-(7-benzyl-2,7-diazaspiro[3.5]nonan-2-yl)benzo[d]thiazole] | 19%
8 | O=C(Nc1nc2ccccc2s1)c1ccc(C=C2CCN(C(=O)Nc3ccc(C(F)(F)F)cc3)CC2)cc1Cl [Compound 1-107, 4-(4-(benzo[d]thiazol-2-ylcarbamoyl)-3-chlorobenzylidene)-N-(4-(trifluoromethyl)phenyl)piperidine-1-carboxamide] | 34%
9 | O=C(Nc1nc2ccccc2[nH]1)c1cccc(Oc2ncc(F)cn2)c1 [Compound 1-11, N-(1H-benzo[d]imidazol-2-yl)-3-((5-fluoropyrimidin-2-yl)oxy)benzamide] | 21%
10 | CC(C)(C)OC(=O)N1CCC(=Cc2ccc(C(=O)Nc3nc4ccccc4s3)c(F)c2)CC1 [Compound 1-86, tert-butyl 4-(4-(benzo[d]thiazol-2-ylcarbamoyl)-3-fluorobenzylidene)piperidine-1-carboxylate] | 60%
11 | CC(C)(C)OC(=O)N1CCC2(CCN(Cc3ccc(C(=O)Nc4nc5ccccc5s4)cc3)CC2)CC1 [Compound 1-28, tert-butyl 9-(4-(benzo[d]thiazol-2-ylcarbamoyl)benzyl)-3,9-diazaspiro[5.5]undecane-3-carboxylate] | 62%
12 | O=C(Nc1nc2ccccc2s1)c1ccc(C=C2CCN(C(=O)Nc3ccccc3)CC2)cc1 [Compound 1-68, 4-(4-(benzo[d]thiazol-2-ylcarbamoyl)benzylidene)-N-phenylpiperidine-1-carboxamide] | 100%
13 | CCNC(=O)N1CCC(Cc2ccc(C(=O)Nc3nc4ccccc4s3)c(C(F)(F)F)c2)CC1 [Compound 1-84, 4-(4-(benzo[d]thiazol-2-ylcarbamoyl)-3-(trifluoromethyl)benzyl)-N-ethylpiperidine-1-carboxamide] | 53%
14 | O=C(Nc1nc2ccccc2s1)c1ccc(C=C2CCNCC2)cc1 [Compound 1-65, N-(benzo[d]thiazol-2-yl)-4-(piperidin-4-ylidenemethyl)benzamide] | 5%
15 | O=C(Nc1nc2ccccc2s1)c1ccc(CN2CCN(Cc3ccccc3)CC2)cc1 [Compound 1-62, N-(benzo[d]thiazol-2-yl)-4-((4-benzylpiperazin-1-yl)methyl)benzamide] | 7%
16 | O=C(Nc1nc2ccccc2s1)c1ccc(CN2CCN(C(=O)NCCl)CC2)cc1 [Compound 1-54, 4-(4-(benzo[d]thiazol-2-ylcarbamoyl)benzyl)-N-(chloromethyl)piperazine-1-carboxamide] | 100%
17 | O=C(Nc1nc2ccccc2s1)c1ccc(C2=CCNCC2)cc1 [Compound 1-75, N-(benzo[d]thiazol-2-yl)-4-(1,2,3,6-tetrahydropyridin-4-yl)benzamide] | 26%

Row | Compound | inhibition at 10 µM
18 | O=C(Nc1nc2ccccc2s1)c1ccc(CN2CCN(S(=O)(=O)C3CC3)CC2)cc1 [Compound 1-34, N-(benzo[d]thiazol-2-yl)-4-((4-(cyclopropylsulfonyl)piperazin-1-yl)methyl)benzamide] | 29%
19 | CCC(=O)N1CCN(Cc2ccc(C(=O)Nc3nc4ccccc4s3)cc2)CC1 [Compound 1-59, N-(benzo[d]thiazol-2-yl)-4-((4-propionylpiperazin-1-yl)methyl)benzamide] | 5%
20 | CCNC(=O)N1CCC(=Cc2ccc(C(=O)Nc3nc4ccccc4s3)cc2Cl)CC1 [Compound 1-97, 4-(4-(benzo[d]thiazol-2-ylcarbamoyl)-2-chlorobenzylidene)-N-ethylpiperidine-1-carboxamide] | 100%
21 | O=C(Nc1nc2ccccc2s1)c1ccc(C=C2CCN(C(=O)Nc3ccc(C(F)(F)F)cc3)CC2)cc1F [Compound 1-93, 4-(4-(benzo[d]thiazol-2-ylcarbamoyl)-3-fluorobenzylidene)-N-(4-(trifluoromethyl)phenyl)piperidine-1-carboxamide] | 70%
22 | CC(C)(C)OC(=O)N1CCC(Cc2ccc(C(=O)Nc3nc4ccccc4s3)cc2)CC1 [Compound 1-64, tert-butyl 4-(4-(benzol[d]thiazol-2-ylcarbamoyl)benzyl)piperidine-1-carboxylate] | 7%
23 | O=C(Nc1nc2ccccc2s1)c1ccc(CN2CCN(C(=O)Nc3ccc4c(c3)CCC4)CC2)cc1 [Compound 1-46, 4-(4-(benzo[d]thiazol-2-ylcarbamoyl)benzyl)-N-(2,3-dihydro-1H-inden-5-yl)piperazine-1-carboxamide] | 84%
24 | CCc1cnc(Oc2ccc(C(=O)Nc3nc4ccccc4[nH]3)cc2)nc1 [Compound 1-9, N-(1H-benzo[d]imidazol-2-yl)-4-((5-ethylpyrimidin-2-yl)oxy)benzamide] | 63%
25 | O=C(Nc1nc2ccccc2s1)c1ccc(C=C2CCNCC2)cc1C(F)(F)F [Compound 1-79, N-(benzo[d]thiazol-2-yl)-4-(piperidin-4-ylidenemethyl)-2-(trifluoromethyl)benzamide] | 71%
26 | O=C(Nc1nc2ccccc2s1)c1c(F)cc(C=C2CCN(C(=O)Nc3ccccc3)CC2)cc1F [Compound 1-101, 4-(4-(benzo[d]thiazol-2-ylcarbamoyl)-3,5-difluorobenzylidene)-N-phenylpiperidine-1-carboxamide] | 100%
27 | Cc1ccc(Oc2ccc(C(=O)Nc3nc4ccccc4[nH]3)cc2)nn1 [Compound 1-4, N-(1H-benzo[d]imidazol-2-yl)-4-((6-methylpyridazin-3-yl)oxy)benzamide] | 90%
28 | CCNC(=O)N1CCC(=Cc2cc(F)c(C(=O)Nc3nc4ccccc4s3)c(F)c2)CC1 [Compound 1-100, 4-(4-(benzo[d]thiazol-2-ylcarbamoyl)-3,5-difluorobenzylidene)-N-ethylpiperidine-1-carboxamide] | 96%
29 | Cc1ccc(Oc2ccc(C(=O)Nc3nc4ccc(Br)cc4s3)cc2)nn1 [Compound 1-18, N-(6-bromobenzo[d]thiazol-2-yl)-4-((6-methylpyridazin-3-yl)oxy)benzamide] | 5%
30 | CC(C)(C)OC(=O)N1C[C@@H]2C[C@H]1CN2Cc1ccc(C(=O)Nc2nc3ccccc3s2)cc1 [Compound 1-25, Tert-Butyl (1S,4S)-5-(4-(benzo[d]thiazol-2-ylcarbamoyl)benzyl)-2,5-diazabicyclo[2.2.1]heptane-2-carboxylate] | 72%
31 | CCNC(=O)N1C[C@@H]2C[C@H]1CN2Cc1ccc(C(=O)Nc2nc3ccccc3s2)cc1 [Compound 1-72, (1S,4S)-5-(4-(benzo[d]thiazol-2-ylcarbamoyl)benzyl)-N-ethyl-2,5-diazabicyclo[2.2.1]heptane-2-carboxamide] | 40%
32 | O=C(Nc1nc2ccccc2[nH]1)c1ccc(OCc2ccccc2)cc1 [Compound 1-12, N-(1H-benzo[d]imidazol-2-yl)-4-(benzyloxy)benzamide] | 99%
33 | Cc1ccc(Oc2ccc(C(=O)Nc3nc4cc(F)ccc4[nH]3)cc2)nn1 [Compound 1-6, N-(5-fluoro-1H-benzo[d]imidazol-2-yl)-4-((6-methylpyridazin-3-yl)oxy)benzamide] | 92%
34 | CN(C)S(=O)(=O)N1CCN(Cc2ccc(C(=O)Nc3nc4ccccc4s3)cc2)CC1 [Compound 1-33, N-(benzo[d]thiazol-2-yl)-4-((4-(N,N-dimethylsulfamoyl)piperazin-1-yl)methyl)benzamide] | 33%
